Here are results for 3 compounds from patent US20190240502A1, “METHODS, COMPOSITIONS AND APPARATUSES FOR TREATING PSORIASIS BY PHOTOTHERAPY” (Luma Therapeutics, Inc., priority 2016, published 2019).

The format of the series is physicochemical. The procedure: In forming the dressing shown in FIGS. 19A and 19B, the gel may be heat cured (e.g., at between 30-40° C. for between 1-4 hours, e.g., 2 hours at 35° C.). As will be described in more detail below, a very high salt (e.g., MgCl2), such as between 5% and 50% (weight of salt to weight of gel total) may be added to the hydrogel. For example 10% MgCl2 may be used which may help keep the coal tar globules or clusters from dissolving into the gel. […] In the context of the dressings described herein, a decrease in U.V. transmittance may require a longer treatment time (given that power output from the light cannot be increased) or may make treatment with the dressing impossible or impractical. […] Typically the greater the percentage of MgCl2 the better the effect. However, 5% or more may be sufficient; if longer shelf life for the dressings (e.g., beyond one week, two weeks, three weeks, on month, two months, three months, six months, 1 year, etc.) is desired higher MgCl2 percentages (e.g., 7.5%, 10%, or more) may be used.

As for `[Cl-].[Cl-].[Mg+2]` [MgCl2], the “effect of additive on coal tar solubility in hydrogel” value is given as “lower coal tar solubility”.

For the compound `OC[C@@H](O)[C@@H](O)[C@H](O)[C@@H](O)CO` [Sorbitol, sorbitol], the “effect of additive on coal tar solubility in hydrogel” value is “increased solubility of coal tar in water”.

Turning to coal tar, the “solubility of coal tar” value is listed as “low solubility”.
